Consider two molecules from patent EP0869800B1, “ACYLGLYCINE- AND ZINC SALT-BASED ANTIBACTERIAL COMPOUND” (PIERRE FABRE DERMO-COSMETIQUE, priority 1995, dated 1997).

Test [1] deals with Staphylococcus aureus 6538 P. The test is described as follows: Study of the association by the checkerboard method on microplate (CMI in association, FiC, FiC Index). Type of test: cell-based. The following applies: for FiC: CMI of the product in association / CMI of the product alone. The method, then:
• . souche: Staphylococcus aureus 6538 P • milieu de culture : • . bouillon et gélose trypticase soja (Biomérieux) • . bouillon Trypticase soja + 10% Tween 80. • appareillage : • . microplaques stériles Nunc R Nunclon à 96 puits • . eau distillée stérile • . tubes à essais stériles • . étuve à 32°C (Jouan) • . spectrophotomètre PRIM et cuves adaptées • . billes de verres stériles • produits : Les solutions-mères des produits cités ci-dessous ont été préparés comme suit : • . Zn SO 4: solution aqueuse à 5% • . n-octanoyl-glycine : solution à 1% dans 30% butylène glycol puis chauffage jusqu'à dissolution homogène. • méthodes : • CMI : Concentration Minimale Inhibitrice Une distribution de 100 µl de bouillon Trypticase soja est réalisée dans chaque cupule de la microplaque stérile A. Une distribution de 100 µl des différents produits a lieu dans une cupule (on est alors à 50% d'actif) (une cupule par produit). Une série de dilutions sériées au demi est ensuite réalisée sur microplaque. Un témoin stérilité du milieu et un autre témoin de la vigueur de la souche sont réalisés en parallèle sur la microplaque. L'ensemencement de la microplaque (A) a lieu sous la hotte après préparation de l'inoculum bactérien comme suit : Les souches ayant été préalablement repiquées la veille sur gélose Trypticase soja, un inoculum 10^8 germes/ml est dispersé dans l'eau distillée stérile puis agité au vortex. Les billes de verre assurant une bonne dispersion des souches, la mesure de la densité optique permet de préparer un inoculum adéquat par rapport à un étalonnage pré-établi et validé. La répartition de la souche a lieu dans une deuxième microplaque (B) stérile par distribution de 100 µl d'inoculum par microcupule. L'ensemencement a lieu par un repiquage de la microplaque (B) vers la microplaque (A), il se réalise ainsi une dilution au 1/100 de l'inoculum : la microplaque A contenant alors 10^6 germes par ml, peut être mise à l'étuve 24 h à 32°C. […]

The subject of test [2] is Staphylococcus aureus 6538 P. The test is described as follows: Minimal inhibitory concentration (CMI), serial half dilutions in broth on microplate. Type of test: cell-based. The following applies: product alone; 24 h at 32°C; 10^6 germes par ml. The method, then: • . souche: Staphylococcus aureus 6538 P • milieu de culture : • . bouillon et gélose trypticase soja (Biomérieux) • . bouillon Trypticase soja + 10% Tween 80. • appareillage : • . microplaques stériles Nunc R Nunclon à 96 puits • . eau distillée stérile • . tubes à essais stériles • . étuve à 32°C (Jouan) • . spectrophotomètre PRIM et cuves adaptées • . billes de verres stériles • produits : Les solutions-mères des produits cités ci-dessous ont été préparés comme suit : • . Zn SO 4: solution aqueuse à 5% • . n-octanoyl-glycine : solution à 1% dans 30% butylène glycol puis chauffage jusqu'à dissolution homogène. • méthodes : • CMI : Concentration Minimale Inhibitrice Une distribution de 100 µl de bouillon Trypticase soja est réalisée dans chaque cupule de la microplaque stérile A. Une distribution de 100 µl des différents produits a lieu dans une cupule (on est alors à 50% d'actif) (une cupule par produit). Une série de dilutions sériées au demi est ensuite réalisée sur microplaque. Un témoin stérilité du milieu et un autre témoin de la vigueur de la souche sont réalisés en parallèle sur la microplaque. […]

Consider `O=S(=O)([O-])[O-].[Zn+2]` [Zn SO 4, sulfate de zinc], for which the FiC in test [1] was 0,20. Besides, in test [1] (product in association (checkerboard), incubation at 32°C), the “CMI Associés” value is 0,03. Further, the “CMI Seuls” value in test [2] is recorded as 0,15.

Turning to `CCCCCCCC(=O)NCC(=O)O` [n octanoyl glycine, n-octanoyl-glycine], the FiC in test [1] is 0,5. For the same molecule, the “CMI Seuls” value in test [2] is 0,25.
